Results as given in PubChem BioAssay AID1963873 (Molecular Pharmacology Branch, DTP, NCI, 2024).

Test system: 276233-004-R-J1-PDC KRAS spheroids with HUVEC/MSC, viability
Test: Anticancer human tumor 276233-004-R-J1-PDC patient-derived colon adenocarcinoma cell line growth inhibition [KRAS2]
Settings: for IC50: curve of first compound; for viability, T/C: stronger effect = lower value
In short: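 KRAS-mutant tumor cells were grown as spheroids with HUVEC endothelial cells and human MSCs as stroma. Targeted agents were tested alone and with KRAS pathway inhibitors. Doses started at or near clinical Cmax, or 10 microM, descending half-log.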

[1] = second compound 0.1 µM, first compound 0.0316 µM
[2] = second compound 0.1 µM, first compound 0.1 µM
[3] = second compound 0.316 µM, first compound 0.0316 µM
[4] = second compound 0.316 µM, first compound 0.1 µM
[5] = second compound 1 µM, first compound 0.0316 µM
[6] = second compound 1 µM, first compound 0.1 µM
[7] = second compound 3.16 µM, first compound 0.0316 µM
[8] = second compound 3.16 µM, first compound 0.1 µM
[9] = second compound 10 µM, first compound 0.0316 µM
[10] = second compound 10 µM, first compound 0.1 µM
[11] = second compound 0.1 µM, first compound 0.316 µM
[12] = second compound 0.1 µM, first compound 1 µM
[13] = second compound 0.1 µM, first compound 3.16 µM
[14] = second compound 0.1 µM, first compound 10 µM
[15] = second compound 0.316 µM, first compound 0.316 µM
[16] = second compound 0.316 µM, first compound 1 µM
[17] = second compound 0.316 µM, first compound 3.16 µM
[18] = second compound 0.316 µM, first compound 10 µM
[19] = second compound 1 µM, first compound 0.316 µM
[20] = second compound 1 µM, first compound 1 µM
[21] = second compound 1 µM, first compound 3.16 µM
[22] = second compound 1 µM, first compound 10 µM
[23] = second compound 3.16 µM, first compound 0.316 µM
[24] = second compound 3.16 µM, first compound 1 µM
[25] = second compound 3.16 µM, first compound 3.16 µM
[26] = second compound 3.16 µM, first compound 10 µM
[27] = second compound 10 µM, first compound 0.316 µM
[28] = second compound 10 µM, first compound 1 µM
[29] = second compound 10 µM, first compound 3.16 µM
[30] = second compound 10 µM, first compound 10 µM
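Also: cells exposed to agents for seven days before viability read.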
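For viability, T/C in this document: 100% = DMSO vehicle control wells and lower values mean fewer viable cells.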

Structure (SMILES)	IC50 (second compound 0.1 µM) [nM]	IC50 (second compound 0.316 µM) [nM]	IC50 (second compound 1 µM) [nM]	IC50 (second compound 3.16 µM) [nM]	IC50 (second compound 10 µM) [nM]	viability, T/C [1] [%]	viability, T/C [2] [%]	viability, T/C [3] [%]	viability, T/C [4] [%]	viability, T/C [5] [%]	viability, T/C [6] [%]	viability, T/C [7] [%]	viability, T/C [8] [%]	viability, T/C [9] [%]	viability, T/C [10] [%]	viability, T/C [11] [%]	viability, T/C [12] [%]	viability, T/C [13] [%]	viability, T/C [14] [%]	viability, T/C [15] [%]	further results
CN(C)C/C=C/C(=O)Nc1cc2c(Nc3ccc(F)c(Cl)c3)ncnc2cc1O[C@H]1CCOC1 + COc1cc2nc(C)nc(NC(C)c3cc(N)cc(C(F)(F)F)c3)c2cc1OC1CCOC1	> 100	> 100	> 100	> 100	> 100	79.8	80.2	68.5	74	71.4	67.5	56	66.3	63.6	63.4						viability, T/C (second compound 0.1 µM, first compound 0.000316 µM): 99.4%; viability, T/C (second compound 0.1 µM, first compound 0.001 µM): 95.6%; viability, T/C (second compound 0.1 µM, first compound 0.00316 µM): 77.4%; viability, T/C (second compound 0.1 µM, first compound 0.01 µM): 86.9%; viability, T/C (second compound 0.316 µM, first compound 0.000316 µM): 80%; viability, T/C (second compound 0.316 µM, first compound 0.001 µM): 82.9%; viability, T/C (second compound 0.316 µM, first compound 0.00316 µM): 71.7%; viability, T/C (second compound 0.316 µM, first compound 0.01 µM): 61.1%; viability, T/C (second compound 1 µM, first compound 0.000316 µM): 86.1%; viability, T/C (second compound 1 µM, first compound 0.001 µM): 107%; viability, T/C (second compound 1 µM, first compound 0.00316 µM): 87.9%; viability, T/C (second compound 1 µM, first compound 0.01 µM): 83.8%; viability, T/C (second compound 3.16 µM, first compound 0.000316 µM): 64.4%; viability, T/C (second compound 3.16 µM, first compound 0.001 µM): 66.9%; viability, T/C (second compound 3.16 µM, first compound 0.00316 µM): 74.7%; viability, T/C (second compound 3.16 µM, first compound 0.01 µM): 63%; viability, T/C (second compound 10 µM, first compound 0.000316 µM): 65%; viability, T/C (second compound 10 µM, first compound 0.001 µM): 69%; viability, T/C (second compound 10 µM, first compound 0.00316 µM): 67.4%; viability, T/C (second compound 10 µM, first compound 0.01 µM): 65.5%
CC(C)NCC(C(=O)N1CCN(c2ncnc3c2C(C)CC3O)CC1)c1ccc(Cl)cc1 (stereo not given) + C=CC(=O)N1CCN(c2nc(=O)n(-c3c(C)ccnc3C(C)C)c3nc(-c4c(O)cccc4F)c(F)cc23)C(C)C1	> 10000	> 10000	> 10000	7170	> 10000	109	128	89	71.7	106	102	125	103	75	79.1	91.3	74.2	73.6	70.5	101	viability, T/C [16]: 80%; viability, T/C [17]: 77.3%; viability, T/C [18]: 63.1%; viability, T/C [19]: 93.8%; viability, T/C [20]: 76.9%; viability, T/C [21]: 81.1%; viability, T/C [22]: 60.7%; viability, T/C [23]: 67.4%; viability, T/C [24]: 66.5%; viability, T/C [25]: 59.3%; viability, T/C [26]: 57.5%; viability, T/C [27]: 58.9%; viability, T/C [28]: 66.8%; viability, T/C [29]: 85.5%; viability, T/C [30]: 64.4%
CC1OCC2(CCN(c3cnc(Sc4ccnc(N)c4Cl)c(N)n3)CC2)C1N (stereo not given) + CNCc1ccccc1-c1csc(C(C)Nc2nc(C)nc3cc(OC)c(OC)cc23)c1	> 10000	> 10000	392	< 31.6	< 31.6	73.8	101	92.8	90.2	88.9	84.1	0.87	0.85	1.45	3.57	66.1	82	73.3	59	68.6	viability, T/C [16]: 60.9%; viability, T/C [17]: 66%; viability, T/C [18]: 46.5%; viability, T/C [19]: 50.8%; viability, T/C [20]: 50%; viability, T/C [21]: 50.3%; viability, T/C [22]: 34.5%; viability, T/C [23]: 1.57%; viability, T/C [24]: 2.11%; viability, T/C [25]: 0.56%; viability, T/C [26]: 3.18%; viability, T/C [27]: 0.22%; viability, T/C [28]: 0.25%; viability, T/C [29]: 0.32%; viability, T/C [30]: 5.87%
